Results from paper PMC11984905, “Chiral Switch of Gadopiclenol: New Standards in MRI Probes” (Advanced Science, 2025).
Several values for one entry are separate records, joined by “and”; a condition that tells them apart may be missing. Equal values may be shown once. Read-outs that look alike come from different tables or passages of the source. Marks after values point to notes of the source that are not given here. One block for each compound: values may come before it.

What was measured:
[1] = Kinetic inertness: dissociation of Gd(III)-complexes in 0.01–1.0 M HCl followed by HPLC; assay type: physicochemical; details: for k d at pH = 7.4: dissociation rate calculated at pH 7.4, 25 °C; for k1: proton-assisted dissociation, [H+]≤0.15 M: [Na+]+[H+]=0.15 M
From the text: The kinetic inertness of the Gd(III)‐complexes with the different isomers formed by rac‐L1 and rac‐L2 was characterized by the rates of the dissociation reactions taking place in 0.01–1.0 M HCl solution. The dissociation reactions were followed by measuring the integral values of the Gd(III)‐complexes with the different isomers of rac‐L1 and rac‐L2 ligands with HPLC. The conditions of the HPLC experiments for the kinetic studies of the Gd(III)‐complexes with rac‐L1 and rac‐L2 ligands are summarized in Tables S1 and S2 (Supporting Information), respectively. The samples were kept at 25 °C in a well‐closed vessel. For the HPLC analysis, 100 µL samples were withdrawn from the solutions. The measurements were performed with 0.2 mM solution of Gd(III)‐complexes. The pseudo‐first‐order rate constants (k d) were calculated by fitting the HPLC integral – t data pairs to Equation (1). (1) At=Ar−Ave^−kdt+Av where A r, A v, and A t are the integral values of the reactants, the product, and reaction time t. The temperature was maintained at 25 °C and the ionic strength of the solutions was kept constant at [H^+]≤0.15 M, [HCl]+[NaCl] = 0.15 M. The calculation of the kinetic parameters was performed by the fitting of the absorbance – time and relaxation rate – time data pairs with the Micromath Scientist computer program (version 2.0, Salt Lake City, UT, USA).
The dissociation reactions of Gd(III)-complexes with the different isomers formed by rac-L1 and rac-L2 have been studied by HPLC method (Tables S1 and S2) at 25 °C in 0.01 – 1.0 M HCl solution to guarantee the pseudo-first-order kinetic condition. Area values as a function of time for the dissociation reactions of Gd(III)-complexes formed with the different stereoisomers of rac-L1 obtained at 25 °C in 1.0 M HCl solution are shown in Figure S48.
In the presence of HCl excess, the decomplexation of Gd(III)-complexes can be treated as a pseudo-first-order process and the reaction rate can be expressed by Equation (S9), where kd is a pseudo-first-order rate constant, [GdL]t and [GdL]tot are the concentrations of the GdL species at time t and the total concentration of the complex, respectively.
The rates of the dissociation reactions have been studied at different concentrations of HCl ([HCl]=0.01 – 1.0 M, 25 °C). The kd values obtained for the Gd(III)-complexes with the different isomers of rac-L1 and rac-L2 ligands as a function of [H^+] are shown in Figures S49 and S50.
The obtained kd pseudo-first order rate constants are directly proportional to the concentration of H^+. The increase in the kd values with increasing concentration of H^+ can be interpreted in terms of the proton assisted dissociation of Gd(III)-complexes. […] The proton assisted dissociation of Gd(III)-complexes might be explained by the equilibrium formation of a protonated *Gd(HL) intermediate (Equation (S11)), which dissociates spontaneously (Equation (12)).
where k0, and k1 = kGdHL×K^HGdHL are the rate constants characterizing the spontaneous and proton-assisted dissociation of Gd(III)-complexes. The protonation constant (K^HGdHL) of Gd(DOTA)-like complexes are very small (Gd(DOTA): K^HGdHL =14).^[22] By considering very low protonation constant of Gd(III)-complexes with A, C and D isomers of rac-L1 and A’, C’ and D’ isomers of rac-L2 ligands (K^HGdHL<<10), the denominator of Equation (S14) (1>> K^HGdHL [H^+]) can be neglected, so Equation (S14) can be simplified in the form of Equation (S15). The k0 and k1 values of the Gd(III) complexes with A, C and D isomers of rac-L1, and A’, C’ and D’ isomers of rac-L2 ligands have been calculated by fitting of the kinetic data (Figures S49 and S50) to Equation (S15).
The k1 rate and logK^HGdHL protonation constants characterizing the acid-catalyzed decomplexation of Gd(III)-complexes formed with the different stereoisomers of rac-L1 and rac-L2 are presented and compared with those of [Gd(PCTA)], [Gd(DOTA)]^-, [Gd(HP-DO3A)] and [Gd(BT-DO3A)] in Table S19.

[2] = 25 °C, cited from earlier work
[3] = 0.15 M NaCl, 25 °C; cited from earlier work
[4] = 1H NMRD profiles and 17O NMR relaxometry in water; assay type: physicochemical; details: for q: number of coordinated water molecules
Protocol: The magnetic‐field dependence of the longitudinal relaxation rate of water protons (^1H NMRD) were measured in aqueous solution by using a variable field relaxometer equipped with an HTS‐110 3T Metrology Cryogen‐free Superconducting Magnet (Mede, Italy), operating in the overall range of proton Larmor frequencies of 20–120 MHz (0.47–3.00 T). The measurements were performed using the standard inversion recovery sequence (20 experiments, 3 scans) with a 90° pulse width of 3.5 µs. The temperature was controlled with a Stelar VTC‐91 heater airflow. Additional points in the 0.01–10 MHz frequency range were collected on a Fast‐Field Cycling (FFC) Stelar SmarTracer Relaxometer. T 1 values at 500 MHz were collected on a Bruker Avance III NMR spectrometer operating at 11.7 T. The concentration of Gd^3+ in the solutions was determined by using bulk magnetic susceptibility (BMS) shift measurements performed at 11.7 T. For the measurements in the biological fluid, lyophilized plasma matrix (Siemens Healthcare) was added to 1 mL of [Gd(ent‐L2)] (1.0 mM) or Seronorm (Sero) was solubilized in 5 mL [Gd(ent‐L2)] (1.0 mM) solution. ^1H NMRD of the final solution was measured at 310 K.
The spectra were acquired on a Bruker Avance III spectrometer (11.7 T) using a 5 mm probe under temperature control. An aqueous solution of the complexes ([GdL] = 10–15 mM) was enriched to ca. 2.0% of the ^17O isotope (Cambridge Isotope). The transverse relaxation rates (R 2) were measured as a function of temperature in the 278−350 K range. The simultaneous fit of ^1H NMRD and ^17O NMR profiles data was performed using the Micromath Scientist software (version 2.0, Salt Lake City, UT, USA).

[5] = Relaxivity at 21 / 400 MHz and 25 °C in 0.15 M NaCl; assay type: physicochemical; details: 400 MHz
Protocol: The relaxivity values were calculated from the longitudinal relaxation time of H2O protons (T 1) measured at 21 MHz on a Stelar relaxometer connected to a Bruker WP80 NMR electromagnet adapted to variable‐field measurements (15−80 MHz proton Larmor frequency). The temperature of the sample holder was controlled with a thermostatted air stream. The longitudinal relaxation time was measured with the “inversion recovery” method (180° – τ – 90°) by using 12 different τ values with typical 90° pulse width of 6.4 µs, 4 scans. The measurements were performed with 1 mM solution of the Gd(III)‐complexes with rac‐L1, ent‐L1, rac‐L2, and ent‐L2 ligands, so the relaxivity values were given as r 1 = […] where T 1p and T 1w were the relaxation time of bulk water protons in the presence and absence of paramagnetic species, respectively. The variable pH relaxivity measurements of Gd(III)‐complexes with rac‐L1, ent‐L1, rac‐L2, and ent‐L2 ligands could be carried out by direct titration of the samples in the pH range 2.5–9.0 (21 MHz, 25 °C, 0.15 M NaCl). The pH was adjusted by stepwise addition of concentrated NaOH or HCl solution.
The stability constant of Gd(III)‐complexes with rac‐L2 and ent‐L2 ligands were determined by the measurement of the proton relaxation rates (r 1) studying the competition reaction of rac‐L2 and ent‐L2 ligands with AAZTA for Gd(III) ion at pH = 4.0 in 0.15 M NaCl solution. In these experiments, the concentration of Gd^3+, rac‐L2, and ent‐L2 ligands was 2.0 mM, while that of the AAZTA was varied between 1.0 and 6.0 mM (5 × 1.5 mL samples). The pH was adjusted to pH 4.0 by stepwise addition of concentrated NaOH or HCl solutions. The samples were kept at 70 °C for a month and then at 25°C for two months in order to attain the equilibrium (the time needed to reach the equilibria was determined by ^1H‐NMR relaxometry). ^1H‐NMR relaxometric measurement of Gd(III) – rac‐L2 – AAZTA and Gd(III) – ent‐L2 – AAZTA systems were performed with a Bruker Avance III 400 (9.4 T) equipped with BB inverse z gradient probe (5 mm). The longitudinal relaxation time (T 1) was measured with the “inversion recovery” method (180° – τ – 90°) by using 12 different τ values with typical 90° pulse width of 12.0 µs, 4 scans at 298 K. The stability constants of [Gd(rac‐L2)] and [Gd(ent‐L2)] complexes were calculated by considering the protonation constants of AAZTA ligand and the stability constant of [Gd(AAZTA)]^− complex (AAZTA: logK 1 ^H = 10.06, logK 2 ^H = 6.50, logK 3 ^H = 3.77, logK 4 ^H = 2.33, logK 5 ^H = 1.51; [Gd(AAZTA)]^−: logK GdL = 18.93, 0.15 M NaCl, 25 °C).^[ [47] ^] The equilibrium constants were calculated with the program PSEQUAD.^[ [48] ^]

[6] = 0.15 M NaCl, 25 °C; cited from earlier work; remark: listed apart in the source

Compound: O=C(CC[C@H](C(=O)[O-])N1CCN([C@@H](CCC(=O)NCC(O)CO)C(=O)[O-])CCN([C@H](CCC(=O)NCC(O)CO)C(=O)[O-])Cc2cccc(n2)C1)NCC(O)CO.[Gd+3] (relative stereo) [[Gd(rac-L2)] A’ (RSR/SRS)]
k d at pH = 7.4 [1]: 1.85×10^-12 s^−1
k d at pH = 7.4 ([1]; listed as RSR/SRS (A′)): 1.85 × 10^−12 s^−1
k1 ([1]; 25 °C): (4.7±0.1) ×10^-5 M^-1s^-1

Compound: CC(O)CN1CCN(CC(=O)[O-])CCN(CC(=O)[O-])CCN(CC(=O)[O-])CC1.[Gd+3] (centres unmarked) [[Gd(HP-DO3A)]]
k1 ([2]; 0.15 M NaCl): 0.00029 M⁻¹ s⁻¹
k1 [2]: 0.00026 M⁻¹ s⁻¹
k d at pH = 7.4 ([2]; pH 7.4, 0.1 M NaCl): 1.0×10^-11 s^−1
k d at pH = 7.4 ([2]; pH 7.4, 0.15 M NaCl): 1.2×10^-11 s^−1

Compound: CC1(N(CC(=O)O)CC(=O)O)CN(CC(=O)O)CCN(CC(=O)O)C1 [AAZTA]
logK1^H [3]: 10.06
logK2^H [3]: 6.50
logK3^H [3]: 3.77
logK4^H [3]: 2.33
logK5^H [3]: 1.51

Compound: O=C(O)CCC(C(=O)[O-])N1CCN(C(CCC(=O)O)C(=O)[O-])Cc2cccc(n2)CN(C(CCC(=O)O)C(=O)[O-])CC1.[Gd+3] (racemic) [[Gd(rac-L1)] A (RSR/SRS)]
k d at pH = 7.4 [1]: 1.84×10^-12 s^−1
k d at pH = 7.4 ([1]; listed as RSR/SRS (A)): 1.84 × 10^−12 s^−1
k1 ([1]; 25 °C): (4.6±0.2) ×10^-5 M^-1s^-1

K^HGd(HL) ([1]; protonation constant of the *Gd(HL) intermediate, 25 °C): 2.0 ± 0.4 M⁻¹
Compound: O=C(O)CCC(C(=O)[O-])N1CCN(C(CCC(=O)O)C(=O)[O-])Cc2cccc(n2)CN(C(CCC(=O)O)C(=O)[O-])CC1.[Gd+3] (racemic) [[Gd(rac-L1)] B (RSS/SRR)]
k d at pH = 7.4 [1]: 1.28×10^-11 s^−1
k d at pH = 7.4 ([1]; listed as RSS/SRR (B)): 1.28 × 10^−11 s^−1
k1 ([1]; 25 °C): (3.2±0.4) ×10^-4 M^-1s^-1

Compound: O=C([O-])CN1CCN(CC(=O)[O-])Cc2cccc(n2)CN(CC(=O)[O-])CC1.[Eu+3] [[Eu(PCTA)]]
K^HGd(HL) ([2]; 1.0 M KCl): 1.72 M⁻¹
k d at pH = 7.4 ([2]; pH 7.4, 1.0 M KCl): 2.0 × 10^−11 ([Eu(PCTA)]) s^−1 and 2.0×10^-11 s^−1

Compound: O=C(O)CCC(C(=O)[O-])N1CCN(C(CCC(=O)O)C(=O)[O-])Cc2cccc(n2)CN(C(CCC(=O)O)C(=O)[O-])CC1.[Gd+3] (racemic) [[Gd(rac-L1)] D (RRS/SSR)]
k d at pH = 7.4 [1]: 4.95×10^-13 s^−1
k d at pH = 7.4 ([1]; listed as RRS/SSR (D)): 4.95 × 10^−13 s^−1
k1 ([1]; 25 °C): (1.2±0.1) ×10^-5 M^-1s^-1

τ R ([4]; Table 2): 98 ± 2 ps
τ R ([4]; Table S20, 298 K): 98±2 ps
ER ([4]; fixed in the fitting procedure): 22^b) kJ mol^-1
q ([4]; fixed in the fitting procedure): 2
q ([4]; fixed in the fitting procedure, listed as [Gd(rac-L1)]^3-): 2^b)
τ M1 ([4]; residence time of coordinated water 1, 298 K): 103 ± 5 ns
τ M2 ([4]; residence time of coordinated water 2, 298 K): 14 ± 2 ns
Compound: O=C([O-])CCC(C(=O)[O-])N1CCN(C(CCC(=O)[O-])C(=O)[O-])Cc2cccc(n2)CN(C(CCC(=O)[O-])C(=O)[O-])CC1.[Gd+3] (mixture of isomers) [[Gd(rac‐L1)]^3−] [2,2’,2’’-[3,6,9,15-tetraazabicyclo[9.3.1]pentadeca-1(15),11,13-triene-3,6,9-triyl]tris(4-carboxybutanoate)gadolinium]
^298K r 1 [1.5 T] ([4]; 298 K, 1.5 T, water): 9.4 mM⁻¹ s⁻¹
r 1 ^310K [1.5 T] ([4]; 310 K, 1.5 T, water): 6.8 mM⁻¹ s⁻¹

Compound: CC1(N(CC(=O)[O-])CC(=O)[O-])CN(CC(=O)[O-])CCN(CC(=O)[O-])C1.[Gd+3] [[Gd(AAZTA)]^−, reference compound]
r1p [5]: 6.56 ± 0.08 mM⁻¹ s⁻¹
logK GdL [6]: 18.93
